Measurements reported in US8492405B2, “Glucokinase-activating fused heterocyclic compounds and methods of treating diabetes and obesity” (Takeda Pharmaceutical Company Limited, priority 2006, dated 2013).

Tests used:
[1] = molecular target: T1, GST-hLGK1 (human liver type GK) (Homo sapiens, UniProt P35557); test: Determination of GK activity value (Mant-ATP/Mant-ADP capillary electrophoresis); type: biochemical; conditions: GK activation; GST-hLGK1, D-glucose, 37° C. for 60 min
T1 construct: made in house; host or cells: Escherichia coli BL21
T1 sequence (P35557 1-464 isoform P35557-3): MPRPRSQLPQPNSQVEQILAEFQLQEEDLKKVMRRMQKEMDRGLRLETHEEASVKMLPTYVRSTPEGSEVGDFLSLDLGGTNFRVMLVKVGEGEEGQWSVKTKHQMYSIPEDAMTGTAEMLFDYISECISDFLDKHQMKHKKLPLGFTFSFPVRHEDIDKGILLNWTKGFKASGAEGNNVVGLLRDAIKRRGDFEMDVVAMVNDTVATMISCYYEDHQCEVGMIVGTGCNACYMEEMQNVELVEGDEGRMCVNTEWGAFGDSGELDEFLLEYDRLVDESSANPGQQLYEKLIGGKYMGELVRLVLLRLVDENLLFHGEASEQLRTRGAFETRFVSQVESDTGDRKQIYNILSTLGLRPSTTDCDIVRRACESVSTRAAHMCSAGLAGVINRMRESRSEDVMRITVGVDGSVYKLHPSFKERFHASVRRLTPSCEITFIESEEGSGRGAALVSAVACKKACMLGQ
Protocol: A solution (5 μL) of test compound in 50% dimethyl sulfoxide was added to each well of 384 well black plate (Nalge Nunc International K.K.). Then, a solution (35 μL) obtained by diluting GST-hLGK1 obtained in Reference Example 2A with measurement buffer (containing 50 mM HEPES (pH 7.4), 200 mM KCl, 5 mM MgCl2, 2.5 mM DTT and 50 μM 2′-(or -3′)—O—(N-methylanthraniloyl) adenosine 5′-triphosphate (Mant-ATP) (Jena Bioscience GmbH)) to 6 μg/mL was added to each well.
Each well was stood at 37° C. for 10 min, and 25 mM D-glucose solution (10 μL) was added to start the reaction.
Each well after the reaction was stood at 37° C. for 60 min, and the reaction was quenched by adding 25 μL of a quenching solution (containing 200 mM HEPES (pH 7.4), 20 mM MgCl2, 200 mM EDTA, 0.03% Triton-X 100, 0.3% Coating 3 reagent (Caliper Life Sciences, Inc.)).
2′-(or -3′)-O—(N-methylanthraniloyl)adenosine 5′-triphosphate (Mant-ATP, substrate) and Mant-ADP (reaction resultant product) were separated from each well after the reaction by a microchip type capillary electrophoresis apparatus 250 HTS (Caliper Life Sciences, Inc.). The reaction rate [(reaction resultant product peak height)/(reaction resultant product peak height+substrate peak height)×100(%)] was calculated from the ratio of the substrate peak height and reaction resultant product peak height obtained by fluorescence detection (excitation wavelength 355 nm, measurement wavelength 460 nm) and used as the index of GK activity.
As a control group, the reaction rate was calculated in the same manner as above except that “solution in 50% dimethyl sulfoxide (free of a test compound)” was used instead of “solution of test compound in 50% dimethyl sulfoxide”.
Using the percentage obtained by subtracting the reaction rate of the control group from the reaction rate of the well added with the test compound (test compound addition group) as a GK activation value of the test compound, a concentration dependency curve of the test compound was drawn, and the concentration of the test compound at the middle point between the maximum activity value of the test compound addition group and the activity value of the control group was taken as an EC50 value.

Row | Compound | EC50 [1] | melting point
1 | Cc1sc2cc(C3=NCCS3)[nH]c2c1N(C)S(=O)(=O)c1cccs1 [Example 5, N-[5-(4,5-dihydro-1,3-thiazol-2-yl)-2-methyl-4H-thieno[3,2-b]pyrrol-3-yl]-N-methylthiophene-2-sulfonamide] | 74 nM | 140 °C
2 | Cc1sc2cc(C3=NCC4(CCNCC4)S3)[nH]c2c1N(C)S(=O)(=O)c1cccs1 [Example 7, N-methyl-N-[2-methyl-5-(1-thia-3,8-diazaspiro[4.5]deca-2-en-2-yl)-4H-thieno[3,2-b]pyrrol-3-yl]thiophene-2-sulfonamide] |  | 196 °C
3 | CC(=O)N1CCC2(CC1)CN=C(c1cc3sc(C)c(N(C)S(=O)(=O)c4cccs4)c3[nH]1)S2 [Example 8, N-[5-(8-acetyl-1-thia-3,8-diazaspiro[4.5]deca-2-en-2-yl)-2-methyl-4H-thieno[3,2-b]pyrrol-3-yl]-N-methylthiophene-2-sulfonamide] | 160 nM | 231 °C
4 | CCOC(=O)C(=O)NNC(=O)c1cc2sc(C)c(N(C)S(=O)(=O)c3cccs3)c2[nH]1 [Example 9, ethyl [2-({2-methyl-3-[methyl(2-thienylsulfonyl)amino]-4H-thieno[3,2-b]pyrrol-5-yl}carbonyl)hydrazino](oxo)acetate] |  | 135 °C
5 | CCOC(=O)c1nnc(-c2cc3sc(C)c(N(C)S(=O)(=O)c4cccs4)c3[nH]2)s1 [Example 10, ethyl 5-{2-methyl-3-[methyl(2-thienylsulfonyl)amino]-4H-thieno[3,2-b]pyrrol-5-yl}-1,3,4-thiadiazole-2-carboxylate] |  | 209 °C
6 | COC(OC)C1CN=C(c2cc3sc(C)c(N(C)S(=O)(=O)c4cccs4)c3[nH]2)S1 (centres unmarked) [Example 12, N-{5-[5-(dimethoxymethyl)-4,5-dihydro-1,3-thiazol-2-yl]-2-methyl-4H-thieno[3,2-b]pyrrol-3-yl}-N-methylthiophene-2-sulfonamide] |  | 185 °C
7 | CON(C)C(=O)c1cc2sc(C)c(N(C)S(=O)(=O)c3cccs3)c2[nH]1 [Example 13, N-methoxy-N,2-dimethyl-3-[methyl(2-thienylsulfonyl)amino]-4H-thieno[3,2-b]pyrrole-5-carboxamide] |  | 187 °C
8 | CC(=O)c1cc2sc(C)c(N(C)S(=O)(=O)c3cccs3)c2[nH]1 [Example 14, N-(5-acetyl-2-methyl-4H-thieno[3,2-b]pyrrol-3-yl)-N-methylthiophene-2-sulfonamide] |  | 220 °C

Continued, values first:

Row | EC50 [1] | melting point | Compound
9 | 3600 nM | 193 °C | CCOC(=O)c1cc2nc(C)n(Cc3ccccc3)c2[nH]1 [Example 1, ethyl 3-benzyl-2-methyl-3,4-dihydropyrrolo[2,3-d]imidazole-5-carboxylate]
10 |  | 122 °C | CCOC(=O)c1cc2sc(C)c(N(C)C(=O)OCc3ccccc3)c2[nH]1 [Example 2, ethyl 3-{[(benzyloxy)carbonyl](methyl)amino}-2-methyl-4H-thieno[3,2-b]pyrrole-5-carboxylate]
11 |  | 161 °C | CCOC(=O)c1cc2sc(C)c(N(C)S(=O)(=O)c3cccs3)c2[nH]1 [Example 3, ethyl 2-methyl-3-[methyl(2-thienylsulfonyl)amino]-4H-thieno[3,2-b]pyrrole-5-carboxylate]
12 |  | 222 °C | Cc1sc2cc(C(=O)NCC3(SCc4ccccc4)CCNCC3)[nH]c2c1N(C)S(=O)(=O)c1cccs1 [Example 6, N-{[4-(benzylthio)piperidin-4-yl]methyl}-2-methyl-3-[methyl(2-thienylsulfonyl)amino]-4H-thieno[3,2-b]pyrrole-5-carboxamide]
13 |  | 122 °C | CCOC(=O)c1cc2c([nH]1)c(N(C)S(=O)(=O)c1cccs1)cn2CC [Example 15, ethyl 4-ethyl-6-[methyl(2-thienylsulfonyl)amino]-1,4-dihydropyrrolo[3,2-b]pyrrole-2-carboxylate]
14 | 350 nM | 163 °C | CCn1cc(N(C)S(=O)(=O)c2cccs2)c2[nH]c(C3=NCCS3)cc21 [Example 17, N-[5-(4,5-dihydro-1,3-thiazol-2-yl)-1-ethyl-1,4-dihydropyrrolo[3,2-b]pyrrol-3-yl]-N-methylthiophene-2-sulfonamide]
15 | 430 nM | 120 °C | CCOC(=O)c1cc2c([nH]1)c(N(C)S(=O)(=O)c1cccs1)cn2Cc1ccccc1 [Example 18, ethyl 4-benzyl-6-[methyl(2-thienylsulfonyl)amino]-1,4-dihydropyrrolo[3,2-b]pyrrole-2-carboxylate]
